Results published in the kinase profiling compilation of Christmann-Franck et al. (2016).

Legend:
Test in all cases: radiometric filter-binding kinase assay, Kinase HotSpot
Details in all cases: compound 0.5 µM; ATP 10 µM
NEK1 (human) = NEK1 (human) (UniProt Q96PY6)
IKBKB (human) = IKBKB (human) (UniProt O14920)
EPHA2 (human) = EPHA2 (human) (UniProt P29317)
BLK (human) = BLK (human) (UniProt P51451)
MAP3K7 TAB1 (human) = MAP3K7 TAB1 (human) (UniProt O43318+Q15750)
PAK1 (human) = PAK1 (human) (UniProt Q13153)
ACVR1B (human) = ACVR1B (human) (UniProt P36896)
MAPK12 (human) = MAPK12 (human) (UniProt P53778)
KIT (human) = KIT (human) (UniProt P10721)
TEK (human) = TEK (human) (UniProt Q02763)
Sequence of TEK (human) (Q02763 whole entry, looked up): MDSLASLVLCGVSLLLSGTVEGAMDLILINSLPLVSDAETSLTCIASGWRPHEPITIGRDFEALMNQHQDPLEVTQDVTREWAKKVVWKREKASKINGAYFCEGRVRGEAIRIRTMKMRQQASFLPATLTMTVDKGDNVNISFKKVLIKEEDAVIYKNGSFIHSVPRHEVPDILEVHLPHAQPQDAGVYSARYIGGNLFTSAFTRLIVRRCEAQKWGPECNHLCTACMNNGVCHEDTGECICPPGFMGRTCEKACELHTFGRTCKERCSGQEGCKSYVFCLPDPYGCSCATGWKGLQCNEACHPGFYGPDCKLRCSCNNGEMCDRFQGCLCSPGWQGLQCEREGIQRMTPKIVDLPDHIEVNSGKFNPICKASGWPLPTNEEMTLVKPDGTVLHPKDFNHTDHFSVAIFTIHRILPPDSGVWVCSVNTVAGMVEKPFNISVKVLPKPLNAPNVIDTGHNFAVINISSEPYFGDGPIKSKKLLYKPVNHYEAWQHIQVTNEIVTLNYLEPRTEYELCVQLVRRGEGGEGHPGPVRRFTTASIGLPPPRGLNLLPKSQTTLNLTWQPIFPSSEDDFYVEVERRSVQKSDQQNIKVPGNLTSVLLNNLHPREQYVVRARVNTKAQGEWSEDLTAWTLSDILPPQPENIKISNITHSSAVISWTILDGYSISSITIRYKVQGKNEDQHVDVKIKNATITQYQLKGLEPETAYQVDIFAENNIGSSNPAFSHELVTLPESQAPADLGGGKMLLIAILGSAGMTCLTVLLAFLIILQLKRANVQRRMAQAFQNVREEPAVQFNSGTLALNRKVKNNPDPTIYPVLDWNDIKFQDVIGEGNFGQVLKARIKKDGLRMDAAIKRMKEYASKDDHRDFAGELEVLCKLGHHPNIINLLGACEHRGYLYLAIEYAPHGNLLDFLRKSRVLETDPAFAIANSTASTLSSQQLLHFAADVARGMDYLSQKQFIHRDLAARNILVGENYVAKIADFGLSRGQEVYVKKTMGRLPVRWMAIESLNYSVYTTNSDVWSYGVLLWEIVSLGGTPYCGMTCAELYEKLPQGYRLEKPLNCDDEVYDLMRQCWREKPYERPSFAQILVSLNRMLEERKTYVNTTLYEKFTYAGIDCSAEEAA

CDK2 CCNE1 (human) = CDK2 CCNE1 (human) (UniProt P24941+P24864)
Sequence of CDK2 CCNE1 (human) (P24864 whole entry, looked up, other chains not shown): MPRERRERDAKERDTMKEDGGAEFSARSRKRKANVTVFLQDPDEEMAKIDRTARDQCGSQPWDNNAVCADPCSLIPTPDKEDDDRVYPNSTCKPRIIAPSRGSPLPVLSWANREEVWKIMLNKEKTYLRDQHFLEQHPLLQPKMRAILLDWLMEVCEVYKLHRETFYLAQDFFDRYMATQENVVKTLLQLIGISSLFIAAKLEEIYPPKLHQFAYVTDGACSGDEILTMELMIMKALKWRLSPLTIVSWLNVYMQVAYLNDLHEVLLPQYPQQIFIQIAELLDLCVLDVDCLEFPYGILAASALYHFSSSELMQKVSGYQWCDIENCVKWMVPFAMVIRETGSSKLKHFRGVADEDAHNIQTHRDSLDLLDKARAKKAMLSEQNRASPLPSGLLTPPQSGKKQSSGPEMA

EPHA4 (human) = EPHA4 (human) (UniProt P54764)
FER (human) = FER (human) (UniProt P16591)
EPHB4 (human) = EPHB4 (human) (UniProt P54760)
MATK (human) = MATK (human) (UniProt P42679)
NEK4 (human) = NEK4 (human) (UniProt P51957)
ADRBK2 (human) = ADRBK2 (human) (UniProt P35626)
[1] = tested on: FLT4 (human), P35916 [Q890H]
CDK1 CCNA2 (human) = CDK1 CCNA2 (human) (UniProt P06493+P20248)
MYLK (human) = MYLK (human) (UniProt Q15746)
Sequence of MYLK (human) (Q15746 whole entry, looked up): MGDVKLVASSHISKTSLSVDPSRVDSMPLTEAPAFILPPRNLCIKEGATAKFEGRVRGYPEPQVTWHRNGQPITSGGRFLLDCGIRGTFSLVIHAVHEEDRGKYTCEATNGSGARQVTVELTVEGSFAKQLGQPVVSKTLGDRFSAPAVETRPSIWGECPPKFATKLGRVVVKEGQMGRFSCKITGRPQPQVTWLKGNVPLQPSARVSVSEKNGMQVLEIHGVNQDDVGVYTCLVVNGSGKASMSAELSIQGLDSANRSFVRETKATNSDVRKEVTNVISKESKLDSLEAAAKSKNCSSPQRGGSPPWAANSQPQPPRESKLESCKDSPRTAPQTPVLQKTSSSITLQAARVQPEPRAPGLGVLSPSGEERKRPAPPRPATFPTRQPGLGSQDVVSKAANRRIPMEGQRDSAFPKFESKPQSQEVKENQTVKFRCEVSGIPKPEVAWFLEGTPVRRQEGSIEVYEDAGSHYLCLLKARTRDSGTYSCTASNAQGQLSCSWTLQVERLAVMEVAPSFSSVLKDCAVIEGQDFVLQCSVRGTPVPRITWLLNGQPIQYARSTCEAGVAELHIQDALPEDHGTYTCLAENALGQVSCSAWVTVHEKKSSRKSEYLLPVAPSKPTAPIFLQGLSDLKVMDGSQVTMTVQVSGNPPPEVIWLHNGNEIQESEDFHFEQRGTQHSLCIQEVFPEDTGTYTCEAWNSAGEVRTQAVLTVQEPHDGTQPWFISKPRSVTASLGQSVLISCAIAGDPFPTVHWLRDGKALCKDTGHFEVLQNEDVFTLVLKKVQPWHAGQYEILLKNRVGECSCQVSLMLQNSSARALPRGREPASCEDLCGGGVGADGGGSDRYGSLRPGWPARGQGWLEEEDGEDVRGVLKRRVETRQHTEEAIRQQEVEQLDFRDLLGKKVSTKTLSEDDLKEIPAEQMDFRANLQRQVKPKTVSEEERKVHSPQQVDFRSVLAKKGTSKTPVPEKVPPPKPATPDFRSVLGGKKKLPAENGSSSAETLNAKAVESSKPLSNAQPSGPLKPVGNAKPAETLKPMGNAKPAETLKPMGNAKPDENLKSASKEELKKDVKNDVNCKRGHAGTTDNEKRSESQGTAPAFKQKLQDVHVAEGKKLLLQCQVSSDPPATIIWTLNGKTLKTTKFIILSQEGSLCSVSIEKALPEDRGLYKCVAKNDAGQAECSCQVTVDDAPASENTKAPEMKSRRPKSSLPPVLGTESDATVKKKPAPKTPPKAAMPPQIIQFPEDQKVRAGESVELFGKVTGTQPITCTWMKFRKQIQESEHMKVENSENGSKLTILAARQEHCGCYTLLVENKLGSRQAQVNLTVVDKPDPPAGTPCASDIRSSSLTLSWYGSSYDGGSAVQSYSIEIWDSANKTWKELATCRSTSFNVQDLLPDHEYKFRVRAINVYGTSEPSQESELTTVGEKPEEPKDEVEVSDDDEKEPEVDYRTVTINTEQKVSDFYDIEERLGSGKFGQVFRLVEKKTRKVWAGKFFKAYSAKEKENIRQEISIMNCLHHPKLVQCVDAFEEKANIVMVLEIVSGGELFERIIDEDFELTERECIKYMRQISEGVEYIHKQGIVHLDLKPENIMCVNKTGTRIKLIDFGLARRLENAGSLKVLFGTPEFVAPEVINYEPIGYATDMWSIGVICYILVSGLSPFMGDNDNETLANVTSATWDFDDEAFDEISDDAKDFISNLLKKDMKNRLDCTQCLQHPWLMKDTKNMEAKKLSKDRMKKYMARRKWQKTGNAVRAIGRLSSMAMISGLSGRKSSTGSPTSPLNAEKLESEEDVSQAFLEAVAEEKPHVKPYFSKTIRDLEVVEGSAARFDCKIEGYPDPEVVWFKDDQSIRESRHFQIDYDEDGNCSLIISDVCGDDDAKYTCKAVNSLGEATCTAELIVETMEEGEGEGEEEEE

RET (human) = RET (human) (UniProt P07949)
CAMK2D (human) = CAMK2D (human) (UniProt Q13557)
DAPK1 (human) = DAPK1 (human) (UniProt P53355)
Sequence of DAPK1 (human) (P53355 whole entry, looked up): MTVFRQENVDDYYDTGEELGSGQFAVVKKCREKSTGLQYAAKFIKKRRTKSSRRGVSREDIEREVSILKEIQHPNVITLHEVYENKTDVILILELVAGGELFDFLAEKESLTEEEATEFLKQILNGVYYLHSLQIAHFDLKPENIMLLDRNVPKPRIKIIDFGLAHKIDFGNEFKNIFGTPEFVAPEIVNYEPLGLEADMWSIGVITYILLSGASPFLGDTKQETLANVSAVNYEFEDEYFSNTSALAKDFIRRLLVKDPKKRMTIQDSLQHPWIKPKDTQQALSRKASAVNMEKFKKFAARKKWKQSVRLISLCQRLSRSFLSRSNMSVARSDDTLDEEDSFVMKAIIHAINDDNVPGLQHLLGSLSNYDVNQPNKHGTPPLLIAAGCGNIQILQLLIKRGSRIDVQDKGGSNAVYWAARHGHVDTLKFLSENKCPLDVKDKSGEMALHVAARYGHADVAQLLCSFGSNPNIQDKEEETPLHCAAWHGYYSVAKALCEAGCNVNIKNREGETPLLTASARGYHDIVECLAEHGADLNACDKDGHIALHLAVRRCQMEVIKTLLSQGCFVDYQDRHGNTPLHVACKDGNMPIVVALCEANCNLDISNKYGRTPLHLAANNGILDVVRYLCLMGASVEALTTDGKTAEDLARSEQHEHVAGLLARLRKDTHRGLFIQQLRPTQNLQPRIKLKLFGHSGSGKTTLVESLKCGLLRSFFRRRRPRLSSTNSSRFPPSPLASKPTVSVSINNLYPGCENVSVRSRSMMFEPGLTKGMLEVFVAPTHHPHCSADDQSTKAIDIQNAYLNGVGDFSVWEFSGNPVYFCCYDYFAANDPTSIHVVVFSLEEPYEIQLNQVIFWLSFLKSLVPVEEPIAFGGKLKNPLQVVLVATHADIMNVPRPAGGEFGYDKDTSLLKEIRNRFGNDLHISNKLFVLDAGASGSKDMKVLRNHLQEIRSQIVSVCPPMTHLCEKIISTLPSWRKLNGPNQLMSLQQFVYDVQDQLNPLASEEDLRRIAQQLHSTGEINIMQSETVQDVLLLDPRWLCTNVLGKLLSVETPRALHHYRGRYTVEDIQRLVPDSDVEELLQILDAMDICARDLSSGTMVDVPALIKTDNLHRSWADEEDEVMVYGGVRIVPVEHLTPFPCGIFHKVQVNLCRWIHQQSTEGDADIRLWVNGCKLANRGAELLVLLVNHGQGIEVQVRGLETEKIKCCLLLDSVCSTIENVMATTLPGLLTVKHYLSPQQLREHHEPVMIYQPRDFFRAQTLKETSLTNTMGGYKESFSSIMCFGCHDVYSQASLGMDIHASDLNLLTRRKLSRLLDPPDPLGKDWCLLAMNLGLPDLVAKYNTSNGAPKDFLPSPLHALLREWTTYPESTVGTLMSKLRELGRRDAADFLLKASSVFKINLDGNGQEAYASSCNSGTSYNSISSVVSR

PIM2 (human) = PIM2 (human) (UniProt Q9P1W9)
HIPK3 (human) = HIPK3 (human) (UniProt Q9H422)
RPS6KA3 KD1 KD2 (human) = RPS6KA3 KD1 KD2 (human) (UniProt P51812)
SLK (human) = SLK (human) (UniProt Q9H2G2)
PRKCG (human) = PRKCG (human) (UniProt P05129)
TEC (human) = TEC (human) (UniProt P42680)
STK39 (human) = STK39 (human) (UniProt Q9UEW8)
MST1R (human) = MST1R (human) (UniProt Q04912)
AKT1 (human) = AKT1 (human) (UniProt P31749)
EPHB3 (human) = EPHB3 (human) (UniProt P54753)
DAPK3 (human) = DAPK3 (human) (UniProt O43293)
BRSK2 (human) = BRSK2 (human) (UniProt Q8IWQ3)
ULK1 (human) = ULK1 (human) (UniProt O75385)
NTRK1 (human) = NTRK1 (human) (UniProt P04629)
RPS6KA6 KD1 KD2 (human) = RPS6KA6 KD1 KD2 (human) (UniProt Q9UK32)
INSR (human) = INSR (human) (UniProt P06213)
FGFR4 (human) = FGFR4 (human) (UniProt P22455)
ROCK2 (human) = ROCK2 (human) (UniProt O75116)
CAMK2G (human) = CAMK2G (human) (UniProt Q13555)

For `COc1ccc(C(=O)Nc2sc3c(c2C(N)=O)CCCC3)cc1OC`, the residual activity (NEK1 (human)) was 89.8%, the residual activity (IKBKB (human)) was 87.6% and the residual activity (EPHA2 (human)) was 102%. The residual activity (BLK (human)) was 102%, the residual activity (MAP3K7 TAB1 (human)) was 101% and the residual activity (PAK1 (human)) was 94%. For the same molecule, the residual activity (ACVR1B (human)) was 101%, the residual activity (MAPK12 (human)) was 96.5% and the residual activity (KIT (human)) was 46.2%. The residual activity (TEK (human)) was 96.4%, the residual activity (CDK2 CCNE1 (human)) was 94.6% and the residual activity (EPHA4 (human)) was 104%. For the same molecule, the residual activity (FER (human)) was 89.8%, the residual activity (EPHB4 (human)) was 93.9% and the residual activity (MATK (human)) was 92.7%. For the same molecule, the residual activity (NEK4 (human)) was 104%, the residual activity (ADRBK2 (human)) was 103% and the residual activity [1] was 110%. It also gave a residual activity (CDK1 CCNA2 (human)) of 105%, a residual activity (MYLK (human)) of 41.2% and a residual activity (RET (human)) of 102%. For the same molecule, the residual activity (CAMK2D (human)) was 104%, the residual activity (DAPK1 (human)) was 78.2% and the residual activity (PIM2 (human)) was 98.5%. For the same molecule, the residual activity (HIPK3 (human)) was 105%, the residual activity (RPS6KA3 KD1 KD2 (human)) was 93% and the residual activity (SLK (human)) was 92.5%. It also gave a residual activity (PRKCG (human)) of 93%, a residual activity (TEC (human)) of 115% and a residual activity (STK39 (human)) of 101%. For the same molecule, the residual activity (MST1R (human)) was 105%, the residual activity (AKT1 (human)) was 99.7% and the residual activity (EPHB3 (human)) was 92.4%. It also gave a residual activity (DAPK3 (human)) of 102%, a residual activity (BRSK2 (human)) of 97.9% and a residual activity (ULK1 (human)) of 96%. For the same molecule, the residual activity (NTRK1 (human)) was 104%, the residual activity (RPS6KA6 KD1 KD2 (human)) was 98.5% and the residual activity (INSR (human)) was 93.2%. For the same molecule, the residual activity (FGFR4 (human)) was 105%, the residual activity (ROCK2 (human)) was 92.3% and the residual activity (CAMK2G (human)) was 95.8%.
With `COc1cc2ncnc(Nc3ccc(Oc4ccccc4)cc3)c2cc1OC` the residual activity (NEK1 (human)) was 101%, the residual activity (IKBKB (human)) was 106% and the residual activity (EPHA2 (human)) was 106%. For the same molecule, the residual activity (BLK (human)) was 9.95%, the residual activity (MAP3K7 TAB1 (human)) was 102% and the residual activity (PAK1 (human)) was 98.2%. It also gave a residual activity (ACVR1B (human)) of 97.5%, a residual activity (MAPK12 (human)) of 105% and a residual activity (KIT (human)) of 75.6%. The residual activity (TEK (human)) was 99.7%, the residual activity (CDK2 CCNE1 (human)) was 87.8% and the residual activity (EPHA4 (human)) was 106%. It also gave a residual activity (FER (human)) of 75.7%, a residual activity (EPHB4 (human)) of 85.5% and a residual activity (MATK (human)) of 94.3%. It also gave a residual activity (NEK4 (human)) of 96.8%, a residual activity (ADRBK2 (human)) of 91.8% and a residual activity [1] of 62.5%. It also gave a residual activity (CDK1 CCNA2 (human)) of 92.2%, a residual activity (MYLK (human)) of 105% and a residual activity (RET (human)) of 40.6%. It also gave a residual activity (CAMK2D (human)) of 97.2%, a residual activity (DAPK1 (human)) of 105% and a residual activity (PIM2 (human)) of 107%. The residual activity (HIPK3 (human)) was 103%, the residual activity (RPS6KA3 KD1 KD2 (human)) was 97.8% and the residual activity (SLK (human)) was 88.7%. The residual activity (PRKCG (human)) was 84.6%, the residual activity (TEC (human)) was 43.3% and the residual activity (STK39 (human)) was 102%. It also gave a residual activity (MST1R (human)) of 95.7%, a residual activity (AKT1 (human)) of 107% and a residual activity (EPHB3 (human)) of 103%. The residual activity (DAPK3 (human)) was 96.9%, the residual activity (BRSK2 (human)) was 101% and the residual activity (ULK1 (human)) was 89.5%. For the same molecule, the residual activity (NTRK1 (human)) was 101%, the residual activity (RPS6KA6 KD1 KD2 (human)) was 111% and the residual activity (INSR (human)) was 88.8%. It also gave a residual activity (FGFR4 (human)) of 77.8%, a residual activity (ROCK2 (human)) of 99.3% and a residual activity (CAMK2G (human)) of 94%.
